Measured values taken from patent US9926304B2, “1-(arylmethyl)quinazoline-2,4(1H,3H)-diones as PARP inhibitors and the use thereof” (Impact Therapeutics, Inc., priority 2011, dated 2018).

How the values were obtained:
[1] = test system: SW620 human colorectal cancer cells; test: MTT based cell viability assay: potentiation of the growth inhibiting activity of MMS; conditions: Homo sapiens, SW-620, 120 h, read-out: IC50 (nM), potentiation of the growth inhibiting activity of MMS, SW620 cells, 1.7 μg/ml MMS, 5 days (120 hours), MTT
[2] = test system: Human breast cancer cell line T47D; test: Cell based caspase-3 activity assay: potentiation of MMS induced apoptosis; conditions: Homo sapiens, T47D, 24 h, T47D cells, 11.1 μg/ml MMS, 24 hours, intracellular caspase-3 activity; read-out: EC50 (nM), potentiation of the apoptosis inducing activity of MMS
From the text: Determination of the synergistic potentiation effect of 1-(3-(4-(pyrimidin-2-yl)piperazine-1-carbonyl)benzyl)quinazoline-2,4(1H,3H)-dione and analogs on MMS induced apoptosis using a cell based caspase-3 activity assay
Human breast cancer cell line T47D was used to determine the potentiation effect of PARP inhibitors on the apoptosis inducing activity of DNA damaging anticancer drugs such as MMS. Intracellular caspase-3 activity was used to measure cell apoptosis. The dose response effect of MMS to induce intracellular caspase activity was carefully titrated and the concentration that only induces a minimal level of caspase activity was used to test the potentiation effect of PARP inhibitors. Briefly, T47D cells were grown in DMEM/F12 cell culture medium (Hyclone) supplemented with 0.2 U/ml insulin (Genview) and 10% FBS (Hyclone). A day before experiment, 20000 of T47D cells were seeded to each well of a 96-well cell culture plate and maintained at 37° C. and 5% CO2 in a cell culture incubator overnight. On the day of experiment, cell culture medium was removed. One hundred and eighty μl of fresh medium containing 11.1 μg/ml MMS was added to each well and followed by 20 μl medium containing 10 folds of the concentrations of experimental drugs or reference compounds (ADZ2281 and ABT-888). The serial dilutions of the compounds to be tested and the reference compounds were made in a 1:3 and 1:10 fashion in DMSO. The 10-fold compound solutions were made by mixing 10 μl DMSO serial dilution solutions with 90 μl fresh growth medium. Twenty four hours later, the cells in the 96-well plates were centrifuged at 1000 g for 5 min and the supernatants were removed. Fifty μl lysis buffer (10 mM Tris, pH7.5, 0.1M NaCl, 1 mM EDTA, 0.01% Triton X-100) was added to each well and the plates were shaked horizontally for 30 min at 4° C. After centrifugation at 1000 g at 4° C. for 10 min, 20 μl of supernatant was transferred from each well to a corresponding well in a 384-well black plate. Twenty μl of buffer (20 mM PIPES, pH7.4, 4 mM EDTA and 0.2% CHAPS) containing 20 μM fluorescent caspase-3 substrate ((Ac-DEVD)2-R110, AnaSpec Cat #60304-5) was added to each well afterwards. The plates were shaked to uniformly mix the wells and incubated at 37° C. for 3 h. The fluorescence intensity was measured using the following wavelength: ex: 496 nm, em: 520 nm using a fluorescence plate reader (Varioskan Flash, Thermo Fisher Scientific). The caspase-3 activity induced by the compounds was expressed as a relative fluorescence unit (RFU). The obtained fluorescence readings were analyzed using a commercial graphic software (GraphPad Prism 5) and plotted against the Log value of the compound concentrations. The EC50 values were obtained by fitting the data points with the equation of Y (fluorescence reading)=minimal fluorescence reading+(maximal fluorescence reading−minimal fluorescence reading)/(1+10^(Log EC50−Log C)), where C is the concentration of the testing compound.
The synergistic potentiation effect of compounds on MMS induced apoptosis in T47D cells is expressed as EC50 values and listed in Table 2.

| IC50 [1] [nM] | EC50 [2] [nM] | Compound |
| --- | --- | --- |
| > 10000 | > 10000 | O=C(c1cccnc1)N1CCN(C(=O)c2cccc(Cn3c(=O)[nH]c(=O)c4ccccc43)c2)CC1 [Example 36, 1-(3-(4-(Pyridine-3-carbonyl)piperazine-1-carbonyl)benzyl)quinazoline-2,4(1H,3H)-dione] |
| > 10000 | 1910 | O=C(c1cccc(Cn2c(=O)[nH]c(=O)c3ccccc32)c1)N1CCN(C(=O)c2ccccn2)CC1 [Example 37, 1-(3-(4-(Pyridine-2-carbonyl)piperazine-1-carbonyl)benzyl)quinazoline-2,4(1H,3H)-dione] |
| > 10000 | 267 | O=C(c1ccncc1)N1CCN(C(=O)c2cccc(Cn3c(=O)[nH]c(=O)c4ccccc43)c2)CC1 [Example 38, 1-(3-(4-(Pyridine-4-carbonyl)piperazine-1-carbonyl)benzyl)quinazoline-2,4(1H,3H)-dione] |
| 604 | 614 | O=C(c1cccc(Cn2c(=O)[nH]c(=O)c3ccccc32)c1)N1CCC(Oc2ccccc2)CC1 [Example 39, 1-(3-(4-Phenoxypiperidine-1-carbonyl)benzyl)quinazoline-2,4(1H,3H)-dione] |
| 54 | 2.6 | O=C(c1ccco1)N1CCN(C(=O)c2cc(Cn3c(=O)[nH]c(=O)c4ccccc43)ccc2F)CC1 [Example 47, 1-(4-Fluoro-3-(4-(furan-2-carbonyl)piperazine-1-carbonyl)benzyl)quinazoline-2,4(1H,3H)-dione] |
| 55 | 22 | O=C(c1ccc(F)c(Cn2c(=O)[nH]c(=O)c3ccccc32)c1)N1CCN(C(=O)c2cccs2)CC1 [Example 52, 1-(6-Fluoro-3-(4-(thiophene-2-carbonyl)piperazine-1-carbonyl)benzyl)quinazoline-2,4(1H,3H)-dione] |
| 59 | 18 | O=C(c1ccc(F)c(Cn2c(=O)[nH]c(=O)c3ccccc32)c1)N1CCN(C(=O)C2CCC2)CC1 [Example 53, 1-(3-(4-(Cyclobutylcarbonyl)piperazine-1-carbonyl)-6-fluorobenzyl)quinazoline-2,4(1H,3H)-dione] |
| 217 | 124 | O=C(c1ccc(F)c(Cn2c(=O)[nH]c(=O)c3ccccc32)c1)N1CCN(C(=O)c2ccco2)CC1 [Example 54, 1-(6-Fluoro-3-(4-(furan-2-carbonyl)piperazine-1-carbonyl)benzyl)quinazoline-2,4(1H,3H)-dione] |
| 89 | 20 | O=C(c1ccc(Cl)c(Cn2c(=O)[nH]c(=O)c3ccccc32)c1)N1CCN(C(=O)C2CCCC2)CC1 [Example 55, 1-(6-Chloro-3-(4-(cyclopentylcarbonyl)piperazine-1-carbonyl)benzyl)quinazoline-2,4(1H,3H)-dione] |
| 46 | 22 | O=C(c1ccc(Cl)c(Cn2c(=O)[nH]c(=O)c3ccccc32)c1)N1CCN(C(=O)C2CCCCC2)CC1 [Example 57, 1-(6-Chloro-3-(4-(cyclohexylcarbonyl)piperazine-1-carbonyl)benzyl)quinazoline-2,4(1H,3H)-dione] |
| 171 | 108 | O=C(c1ccc(Cl)c(Cn2c(=O)[nH]c(=O)c3ccccc32)c1)N1CCN(c2ccccn2)CC1 [Example 58, 1-(6-Chloro-3-(4-(pyridin-2-yl)piperazine-1-carbonyl)benzyl)quinazoline-2,4(1H,3H)-dione] |
| > 10000 | > 10000 | O=C(c1cccc(Cn2c(=O)[nH]c(=O)c3ccccc32)c1Cl)N1CCN(C(=O)C2CCCC2)CC1 [Example 59, 1-(2-Chloro-3-(4-(cyclopentylcarbonyl)piperazine-1-carbonyl)benzyl)quinazoline-2,4(1H,3H)-dione] |
| > 10000 | > 10000 | O=C(c1cccc(Cn2c(=O)[nH]c(=O)c3ccccc32)c1Cl)N1CCN(c2ncccn2)CC1 [Example 60, 1-(2-Chloro-3-(4-(pyrimidin-2-yl)piperazine-1-carbonyl)benzyl)quinazoline-2,4(1H,3H)-dione] |
| 61 | 17 | O=C(c1cccc(Cn2c(=O)[nH]c(=O)c3ccccc32)c1F)N1CCN(c2ncccn2)CC1 [Example 61, 1-(2-Fluoro-3-(4-(pyrimidin-2-yl)piperazine-1-carbonyl)benzyl)quinazoline-2,4(1H,3H)-dione] |
| 816 | 379 | O=C(c1cccc(Cn2c(=O)[nH]c(=O)c3ccccc32)c1F)N1CCN(C(=O)C2CCCC2)CC1 [Example 62, 1-(3-(4-(Cyclopentylcarbonyl)piperazine-1-carbonyl)-2-fluorobenzyl)quinazoline-2,4(1H,3H)-dione] |
| 50 | 15 | O=C(c1cc(F)cc(Cn2c(=O)[nH]c(=O)c3ccccc32)c1)N1CCN(c2ncccn2)CC1 [Example 63, 1-(5-Fluoro-3-(4-(pyrimidin-2-yl)piperazine-1-carbonyl)benzyl)quinazoline-2,4(1H,3H)-dione] |
| 177 | 51 | O=C(c1cc(F)cc(Cn2c(=O)[nH]c(=O)c3ccccc32)c1)N1CCN(C(=O)C2CCCC2)CC1 [Example 64, 1-(3-(4-(Cyclopentylcarbonyl)piperazine-1-carbonyl)-5-fluorobenzyl)quinazoline-2,4(1H,3H)-dione] |
| 991 | 604 | O=C(c1cc(Cn2c(=O)[nH]c(=O)c3ccccc32)ccc1Cl)N1CCN(C(=O)C2CCCCC2)CC1 [Example 66, 1-(4-Chloro-3-(4-(cyclohexylcarbonyl)piperazine-1-carbonyl)benzyl)quinazoline-2,4(1H,3H)-dione] |
| 2050 | 4820 | O=C(c1ccc(Cn2c(=O)[nH]c(=O)c3ccccc32)o1)N1CCN(C(=O)C2CCCC2)CC1 [Example 67, 1-((2-(4-(Cyclopentylcarbonyl)piperazine-1-carbonyl)furan-5-yl)methyl)quinazoline-2,4(1H,3H)-dione] |
| 673 | 635 | O=C(c1ccc(Cn2c(=O)[nH]c(=O)c3ccccc32)o1)N1CCN(c2nsc3ccccc23)CC1 [Example 68, 1-((2-(4-(Benzo[d]isothiazol-3-yl)piperazine-1-carbonyl)furan-5-yl)methyl)quinazoline-2,4(1H,3H)-dione] |
| 70 | 67 | O=C(c1cccc(Cn2c(=O)[nH]c(=O)c3ccccc32)n1)N1CCN(c2ncccn2)CC1 [Example 71, 1-((2-(4-(Pyrimidin-2-yl)piperazine-1-carbonyl)pyridin-6-yl)methyl)quinazoline-2,4(1H,3H)-dione] |
| 80 | 41 | O=C(c1cccc(Cn2c(=O)[nH]c(=O)c3ccccc32)c1)N1CCN(c2nccs2)CC1 [Example 72, 1-(3-(4-(Thiazol-2-yl)piperazine-1-carbonyl)benzyl)quinazoline-2,4(1H,3H)-dione] |
| 3380 | 811 | O=C(c1cccc(Cn2c(=O)[nH]c(=O)c3ccccc32)c1)N1CCN(CC2CCCCC2)CC1 [Example 73, 1-(3-(4-(Cyclohexylmethyl)piperazine-1-carbonyl)benzyl)quinazoline-2,4(1H,3H)-dione] |
| > 10000 | 2110 | O=C(c1cccc(Cn2c(=O)[nH]c(=O)c3ccccc32)c1)N1CCN(CC2CCCC2)CC1 [Example 74, 1-(3-(4-(Cyclopentylmethyl)piperazine-1-carbonyl)benzyl)quinazoline-2,4(1H,3H)-dione] |
| 2660 | 2870 | O=C(c1cccc(Cn2c(=O)[nH]c(=O)c3ccccc32)c1)N1CCN(S(=O)(=O)C2CCCCC2)CC1 [Example 75, 1-(3-(4-(Cyclohexylsulfonyl)piperazine-1-carbonyl)benzyl)quinazoline-2,4(1H,3H)-dione] |
